Tests used:
[1] = human; intravenous injection 1 mg/kg; cited from earlier work
[2] = tested on: rat cardiac muscle cells in primary culture; assay: PDT cell lethality (CCK-8) in cardiac muscle cells in primary culture; format: cell-based
Method: The relationship between the photosensitizer concentration and the cell lethality and the laser output required to induce a cell death were investigated using rat cardiac muscle cells in primary culture.
Cardiac muscle cells in primary culture were purchased from Cell Garage Co., Ltd. as an extract from the rat ventricular muscle. As a medium, D-MEM/F12+10% FBS was used.
Cardiac muscle cells in primary culture were purchased in suspension and seeded on a 96-well microplate. Cells were cultured at 37° C. under 5% CO2, and cells on days 3 and 7 of culture were used. The cardiac muscle cells in primary culture were pulsatile, and pulsations among cells were synchronizing.
Cardiac muscle cells in primary culture were adjusted to a density of 2.0×10^4 cells/well. As a photosensitizer talaporfin sodium was dissolved in a medium at various concentrations and added at a concentration of 0.1 ml/well. After 1 to 2 h of loading, laser irradiation was performed, and the medium was replaced after the completion of irradiation.
At this time, a 0.5-cm^2 irradiation field (=area of well) was irradiated with a continuous semiconductor laser beam (peak wavelength, 670.8 nm) under various conditions.
After laser irradiation, 0.01 ml of Cell Counting Kit-8 (Dojindo Laboratories, hereinafter referred to as CCK-8) was added to the medium in each well, the plate was incubated for 2 h, and the absorbance was measured to calculate the cell lethality. Six samples were examined
The experimental conditions were as follows.
(i) Cells on day 3 of culture
Used cells: cells on day 3 of culture
Agent concentrations: 5, 10, 15 μg/ml
Laser intensity: 150 mW/cm^2
Total energy density: 1, 2, 3, 5 J/cm^2
(ii) Cells on day 7 of culture
Used cells: cells on day 7 of culture
Agent concentrations: 20, 25, 30 μg/ml
Total energy density: 3 J/cm^2

C=Cc1c(C)c2cc3nc(c(CC(=O)N[C@@H](CC(=O)O)C(=O)O)c4[nH]c(cc5nc(cc1[nH]2)C(C)=C5CC)c(C)c4C(=O)O)[C@@H](CCC(=O)O)[C@@H]3C [talaporfin sodium, mono-L-aspartyl chlorine 6]
early average half-life in plasma [1]: 14.6 h
plasma concentration at 10 min [1]: 27000 ng/mL
cell lethality at 5 J/cm^2 vs 3 J/cm^2 ([2]; cells on day 3 of culture, 15 μg/ml): the cell lethality decreased at the total energy density of laser irradiation of 5 J/cm^2 as compared with that at 3 J/cm^2
cell lethality vs total energy density ([2]; cells on day 3 of culture, high talaporfin sodium concentration, 1, 2, 3, 5 J/cm^2, FIG. 10): the greater the total energy density of laser irradiation was, the higher cell lethality was
cell lethality, day 7 vs day 3 cells ([2]; cells on day 7 of culture, 20, 25, 30 μg/ml, 3 J/cm^2, FIG. 11): the cell lethality was higher than when cells on day 3 of culture were used
